ChEMBL document CHEMBL1201862, “PubChem BioAssay data set” (2004)
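Cultured in 96-well plates, cells were exposed to test compound for 48 hours across five concentrations. At the GI50, growth is halved.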 Active and inactive are the calls of the source. Rule as the data show it: active = GI50 up to about 1.1 µM and inactive = higher.

Key:
Test in all cases: inhibition of tumour cell growth, NCI panel, 48 h
[1] = system: CCRF-CEM
[2] = system: COLO 205
[3] = system: DU-145
[4] = system: EKVX
[5] = system: HCT-15
[6] = system: K562
[7] = system: LOX IMVI
[8] = system: M14
[9] = system: MOLT-4
[10] = system: Malme-3M
[11] = system: NCI-H23
[12] = system: OVCAR-4
[13] = system: OVCAR-8
[14] = system: SK-MEL-28
[15] = system: SNB-75
[16] = system: SR
[17] = system: NCI/ADR-RES
[18] = system: OVCAR-3
[19] = system: SK-MEL-2

## COc1c(F)c(F)c(C(=O)/C=C2\Nc3ccccc3NC2=O)c(F)c1F
[1]
  GI50: > 10 µM (inactive)
[2]
  GI50: > 10 µM (inactive)
[3]
  GI50: > 10 µM (inactive)
[4]
  GI50: > 10 µM (inactive)
[5]
  GI50: > 10 µM
[6]
  GI50: > 10 µM (inactive)
[7]
  GI50: 2.89 µM (inactive)
[8]
  GI50: > 10 µM (inactive)
[9]
  GI50: > 10 µM (inactive)
[10]
  GI50: > 10 µM (inactive)
[11]
  GI50: > 10 µM (inactive)
[12]
  GI50: 2.48 µM (inactive)
[13]
  GI50: 3.79 µM (inactive)
[14]
  GI50: 6.81 µM (inactive)
[15]
  GI50: 2.25 µM (inactive)
[16]
  GI50: > 10 µM (inactive)

## COc1ccc2c(c1)C(=O)OCCC2
[1]
  GI50: > 100 µM (inactive)
[2]
  GI50: > 100 µM (inactive)
[3]
  GI50: > 100 µM (inactive)
[4]
  GI50: > 100 µM (inactive)
[5]
  GI50: > 100 µM
[6]
  GI50: > 100 µM (inactive)
[8]
  GI50: > 100 µM (inactive)
[9]
  GI50: > 100 µM (inactive)
[11]
  GI50: > 100 µM (inactive)
[17]
  GI50: > 100 µM (inactive)
[18]
  GI50: > 100 µM (inactive)
[12]
  GI50: > 100 µM (inactive)
[13]
  GI50: > 100 µM (inactive)
[14]
  GI50: > 100 µM (inactive)
[19]
  GI50: > 100 µM (inactive)
[15]
  GI50: 54 µM (inactive)

## O=[N+]([O-])c1ccc(/N=N/c2c(O)ccc3cc(S(=O)(=O)O)ccc23)cc1
[1]
  GI50: > 100 µM (inactive)
[2]
  GI50: > 100 µM (inactive)
[3]
  GI50: > 100 µM (inactive)
[4]
  GI50: > 100 µM (inactive)
[5]
  GI50: > 100 µM
[6]
  GI50: > 100 µM (inactive)
[7]
  GI50: > 100 µM (inactive)
[8]
  GI50: > 100 µM (inactive)
[9]
  GI50: > 100 µM (inactive)
[10]
  GI50: > 100 µM (inactive)
[11]
  GI50: > 100 µM (inactive)
[17]
  GI50: > 100 µM (inactive)
[18]
  GI50: > 100 µM (inactive)
[12]
  GI50: > 100 µM (inactive)
[13]
  GI50: > 100 µM (inactive)
[14]
  GI50: > 100 µM (inactive)
[19]
  GI50: > 100 µM (inactive)
[15]
  GI50: > 100 µM (inactive)

## CC(CC(=O)CO[C@H]1[C@H](O)[C@@H](O)[C@@H](O)[C@@H]2NC(=O)c3c(cc4c(c3O)OCO4)[C@H]21)OC1OC(CO)C(O)C(O)C1O (stereo partly drawn)
[1]
  GI50: 0.182 µM (active)
[2]
  GI50: 0.272 µM (active)
[4]
  GI50: 0.553 µM (active)
[5]
  GI50: 0.396 µM
[6]
  GI50: 0.309 µM (active)
[7]
  GI50: 0.255 µM (active)
[8]
  GI50: 0.425 µM (active)
[9]
  GI50: 0.25 µM (active)
[10]
  GI50: 0.488 µM (active)
[11]
  GI50: 0.441 µM (active)
[17]
  GI50: 0.543 µM (active)
[18]
  GI50: 0.451 µM (active)
[12]
  GI50: 0.277 µM (active)
[13]
  GI50: 0.313 µM (active)
[14]
  GI50: 0.56 µM (active)
[19]
  GI50: 0.242 µM (active)
[15]
  GI50: 0.207 µM (active)
[16]
  GI50: 0.325 µM (active)

## O=C1C(=C/C=C2/SC(c3ccccc3)(c3ccccc3)c3ccccc32)C(=O)c2ccccc21
[2]
  GI50: > 100 µM (inactive)
[3]
  GI50: > 100 µM (inactive)
[4]
  GI50: > 100 µM (inactive)
[5]
  GI50: > 100 µM
[6]
  GI50: > 100 µM (inactive)
[7]
  GI50: > 100 µM (inactive)
[8]
  GI50: > 100 µM (inactive)
[9]
  GI50: > 100 µM (inactive)
[10]
  GI50: > 100 µM (inactive)
[11]
  GI50: > 100 µM (inactive)
[17]
  GI50: > 100 µM (inactive)
[18]
  GI50: > 100 µM (inactive)
[12]
  GI50: > 100 µM (inactive)
[13]
  GI50: > 100 µM (inactive)
[14]
  GI50: > 100 µM (inactive)
[15]
  GI50: > 100 µM (inactive)

## CSC(=O)C[C@@]12O[C@@H]([C@@H](C)C3CCC4[C@@H]5C(O)CC6=CC(=O)C=C[C@]6(C)C5CC[C@@]43C)C[C@](C)(O1)C(C)(C)O2 (stereo partly drawn)
[1]
  GI50: 3.86 µM (inactive)
[5]
  GI50: 17.3 µM
[6]
  GI50: 4.3 µM (inactive)
[7]
  GI50: 12.1 µM (inactive)
[8]
  GI50: 16.3 µM (inactive)
[10]
  GI50: 23.2 µM (inactive)
[11]
  GI50: > 10 µM (inactive)
[18]
  GI50: 15.1 µM (inactive)
[12]
  GI50: 13.5 µM (inactive)
[13]
  GI50: 17.8 µM (inactive)
[14]
  GI50: 17.9 µM (inactive)
[19]
  GI50: 22.9 µM (inactive)
[16]
  GI50: 9.95 µM (inactive)

## CC(C)Cn1cnnc1NS(=O)(=O)c1cc(C(=O)NN)c(Cl)cc1S
[1]
  GI50: > 10 µM (inactive)
[2]
  GI50: > 10 µM (inactive)
[3]
  GI50: > 10 µM (inactive)
[4]
  GI50: > 10 µM (inactive)
[5]
  GI50: > 10 µM
[6]
  GI50: > 10 µM (inactive)
[7]
  GI50: > 10 µM (inactive)
[8]
  GI50: > 10 µM (inactive)
[9]
  GI50: > 10 µM (inactive)
[10]
  GI50: > 10 µM (inactive)
[11]
  GI50: > 10 µM (inactive)
[17]
  GI50: > 10 µM (inactive)
[18]
  GI50: > 10 µM (inactive)
[12]
  GI50: > 10 µM (inactive)
[13]
  GI50: > 10 µM (inactive)
[14]
  GI50: > 10 µM (inactive)
[19]
  GI50: > 10 µM (inactive)
[15]
  GI50: > 10 µM (inactive)

## Cc1cn(C2OC(CO)C(O)C2F)c(=O)[nH]c1=O (stereo not drawn)
[1]
  GI50: 12.2 µM (inactive)
[2]
  GI50: > 100 µM (inactive)
[3]
  GI50: 70.1 µM (inactive)
[4]
  GI50: > 100 µM (inactive)
[5]
  GI50: > 100 µM
[6]
  GI50: 59.7 µM (inactive)
[7]
  GI50: 24.1 µM (inactive)
[8]
  GI50: 41.8 µM (inactive)
[9]
  GI50: 64.3 µM (inactive)
[10]
  GI50: > 100 µM (inactive)
[11]
  GI50: > 100 µM (inactive)
[17]
  GI50: 64 µM (inactive)
[18]
  GI50: > 100 µM (inactive)
[12]
  GI50: > 100 µM (inactive)
[13]
  GI50: > 100 µM (inactive)
[14]
  GI50: > 100 µM (inactive)
[19]
  GI50: > 100 µM (inactive)
[15]
  GI50: > 100 µM (inactive)

## Cc1cc(N)c2cc(NC(=O)Nc3ccc4nc(C)cc(N)c4c3)ccc2n1
[1]
  GI50: > 100 µM (inactive)
[2]
  GI50: > 100 µM (inactive)
[3]
  GI50: > 100 µM (inactive)
[4]
  GI50: > 100 µM (inactive)
[5]
  GI50: > 100 µM
[6]
  GI50: > 100 µM (inactive)
[7]
  GI50: > 100 µM (inactive)
[8]
  GI50: > 100 µM (inactive)
[9]
  GI50: > 100 µM (inactive)
[10]
  GI50: > 100 µM (inactive)
[11]
  GI50: > 100 µM (inactive)
[17]
  GI50: > 100 µM (inactive)
[18]
  GI50: > 100 µM (inactive)
[12]
  GI50: > 100 µM (inactive)
[13]
  GI50: > 100 µM (inactive)
[14]
  GI50: > 100 µM (inactive)
[19]
  GI50: > 100 µM (inactive)

## COC(=O)C(=O)C(C(=O)C(=O)Nc1ccc(Cl)c(Cl)c1)c1nc2ccc(C(=O)c3ccccc3)cc2nc1O (stereo not drawn)
[1]
  GI50: 46.6 µM (inactive)
[4]
  GI50: 44.9 µM (inactive)
[6]
  GI50: < 0.01 µM (active)
[7]
  GI50: 59.3 µM (inactive)
[8]
  GI50: 67.3 µM (inactive)
[9]
  GI50: 15 µM (inactive)
[10]
  GI50: 73.8 µM (inactive)
[11]
  GI50: 47.6 µM (inactive)
[17]
  GI50: 33.6 µM (inactive)
[18]
  GI50: 86.7 µM (inactive)
[13]
  GI50: 40.6 µM (inactive)
[14]
  GI50: 85.3 µM (inactive)
[19]
  GI50: 97.9 µM (inactive)
[15]
  GI50: 28.3 µM (inactive)

## c1ccc(/N=C2/SC(c3ccccc3)(c3ccccc3)c3ccccc32)cc1
[1]
  GI50: > 100 µM (inactive)
[2]
  GI50: > 100 µM (inactive)
[3]
  GI50: > 100 µM (inactive)
[4]
  GI50: > 100 µM (inactive)
[5]
  GI50: > 100 µM
[6]
  GI50: > 100 µM (inactive)
[7]
  GI50: 71.6 µM (inactive)
[8]
  GI50: > 100 µM (inactive)
[9]
  GI50: > 100 µM (inactive)
[10]
  GI50: > 100 µM (inactive)
[11]
  GI50: > 100 µM (inactive)
[17]
  GI50: > 100 µM (inactive)
[18]
  GI50: > 100 µM (inactive)
[12]
  GI50: > 100 µM (inactive)
[13]
  GI50: > 100 µM (inactive)
[14]
  GI50: > 100 µM (inactive)
[19]
  GI50: > 100 µM (inactive)
[15]
  GI50: > 100 µM (inactive)

## O=C1CC2=CCCC2O1 (stereo not drawn)
[1]
  GI50: > 100 µM (inactive)
[2]
  GI50: > 100 µM (inactive)
[4]
  GI50: > 100 µM (inactive)
[5]
  GI50: > 100 µM
[6]
  GI50: > 100 µM (inactive)
[7]
  GI50: > 100 µM (inactive)
[8]
  GI50: > 100 µM (inactive)
[9]
  GI50: > 100 µM (inactive)
[10]
  GI50: > 100 µM (inactive)
[11]
  GI50: > 100 µM (inactive)
[18]
  GI50: > 100 µM (inactive)
[12]
  GI50: > 100 µM (inactive)
[13]
  GI50: > 100 µM (inactive)
[14]
  GI50: > 100 µM (inactive)
[19]
  GI50: > 100 µM (inactive)
[15]
  GI50: > 100 µM (inactive)
